# System: MV-4-11 cells
# Test: Gene expression microarray analysis (Affymetrix PrimeView) and GSEA
# Format: cell-based, human
# Parameters: RFU PODN (11730768_x_at) / Fold change /veh PODN (11730768_x_at) / RFU LINC00158 (11744669_a_at) / Fold change /veh LINC00158 (11744669_a_at) / RFU DUSP10 (11751237_a_at) / Fold change /veh DUSP10 (11751237_a_at) / RFU ID3 (11757404_x_at) / Fold change /veh ID3 (11757404_x_at) / RFU PLEKHG5 (11737974_s_at) / Fold change /veh PLEKHG5 (11737974_s_at) / RFU LRRC4B (11730491_at) / Fold change /veh LRRC4B (11730491_at) / RFU GIMAP4 (11747438_a_at) / Fold change /veh GIMAP4 (11747438_a_at) / RFU KRT8 (11758183_x_at) / Fold change /veh KRT8 (11758183_x_at) / RFU CNN1 (11734310_a_at) / Fold change /veh CNN1 (11734310_a_at) / RFU VPS37D (11726825_at) / Fold change /veh VPS37D (11726825_at) / RFU C10orf10 (11716522_x_at) / Fold change /veh C10orf10 (11716522_x_at) / RFU KIR2DL2 /// KIR2DL4 /// KIR2DL5A /// KIR2DL5B /// KIR2DS1 /// KIR2DS2 /// KIR2DS3 /// KIR2DS4 /// KIR3DL3 /// KIR3DL3 /// KIR3DS1 (11738374_at) / Fold change /veh KIR2DL2 /// KIR2DL4 /// KIR2DL5A /// KIR2DL5B /// KIR2DS1 /// KIR2DS2 /// KIR2DS3 /// KIR2DS4 /// KIR3DL3 /// KIR3DL3 /// KIR3DS1 (11738374_at) / RFU C1QL1 (11718748_at) / Fold change /veh C1QL1 (11718748_at) / RFU TMPRSS4 (11747572_a_at) / Fold change /veh TMPRSS4 (11747572_a_at) / RFU HAMP (11756126_x_at) / Fold change /veh HAMP (11756126_x_at) / RFU RNFT2 (11725882_a_at) / Fold change /veh RNFT2 (11725882_a_at) / RFU NR4A2 (11747474_a_at) / Fold change /veh NR4A2 (11747474_a_at) / RFU ABCC12 (11746883_a_at) / Fold change /veh ABCC12 (11746883_a_at) / RFU TMEM136 (11760407_x_at) / Fold change /veh TMEM136 (11760407_x_at) / RFU CLDN22 /// WWC2 (11732394_at) / Fold change /veh CLDN22 /// WWC2 (11732394_at) / RFU HLA-DPB1 (11760878_x_at) / Fold change /veh HLA-DPB1 (11760878_x_at) / RFU SPINT1 (11716480_a_at) / Fold change /veh SPINT1 (11716480_a_at) / RFU GAP43 (11754022_s_at) / Fold change /veh GAP43 (11754022_s_at) / RFU A4GNT (11735810_at) / Fold change /veh A4GNT (11735810_at) / RFU PRB3 (11715151_x_at) / Fold change /veh PRB3 (11715151_x_at) / RFU TUBB4B (11761932_at) / Fold change /veh TUBB4B (11761932_at) / RFU CAPN14 (11732068_a_at) / Fold change /veh CAPN14 (11732068_a_at) / RFU TMCC2 (11721928_a_at) / Fold change /veh TMCC2 (11721928_a_at) / RFU IRGQ (11745062_a_at) / Fold change /veh IRGQ (11745062_a_at) / RFU FAM174B (11720279_a_at) / Fold change /veh FAM174B (11720279_a_at) / RFU TMPRSS4 (11748680_a_at) / Fold change /veh TMPRSS4 (11748680_a_at) / RFU FAM212B (11763350_a_at) / Fold change /veh FAM212B (11763350_a_at) / RFU PLEKHG5 (11743358_a_at) / Fold change /veh PLEKHG5 (11743358_a_at) / RFU ZSCAN30 (11745921_a_at) / Fold change /veh ZSCAN30 (11745921_a_at) / RFU CMKLR1 (11741424_a_at) / Fold change /veh CMKLR1 (11741424_a_at) / RFU LOC101060620 /// MAPK8IP1 (11723275_at) / Fold change /veh LOC101060620 /// MAPK8IP1 (11723275_at) / RFU SPTSSB (11747773_x_at) / Fold change /veh SPTSSB (11747773_x_at) / RFU PRSS12 (11739890_at) / Fold change /veh PRSS12 (11739890_at) / RFU BIN1 (11741810_x_at) / Fold change /veh BIN1 (11741810_x_at) / RFU WNT11 (11732464_a_at) / Fold change /veh WNT11 (11732464_a_at) / RFU C10orf10 (11716521_a_at) / Fold change /veh C10orf10 (11716521_a_at) / RFU C5orf56 (11738089_at) / Fold change /veh C5orf56 (11738089_at) / RFU CYB561 (11721691_x_at) / Fold change /veh CYB561 (11721691_x_at) / RFU ANKRD19P (11752326_a_at) / Fold change /veh ANKRD19P (11752326_a_at) / RFU OR2T12 /// OR2T33 /// OR2T8 (11738714_s_at) / Fold change /veh OR2T12 /// OR2T33 /// OR2T8 (11738714_s_at) / RFU VCAN (11748164_a_at) / Fold change /veh VCAN (11748164_a_at) / RFU JSRP1 (11732532_at) / Fold change /veh JSRP1 (11732532_at) / RFU KRTAP10-11 (11738290_x_at) / Fold change /veh KRTAP10-11 (11738290_x_at) / RFU MYO3A (11730013_a_at) / Fold change /veh MYO3A (11730013_a_at) / RFU EBF3 (11725865_a_at) / Fold change /veh EBF3 (11725865_a_at) / RFU CAMK2N1 (11719241_x_at) / Fold change /veh CAMK2N1 (11719241_x_at) / RFU C5orf56 (11738088_a_at) / Fold change /veh C5orf56 (11738088_a_at) / RFU OLFML3 (11715873_a_at) / Fold change /veh OLFML3 (11715873_a_at) / RFU LOC100653217 /// NTM (11731650_a_at) / Fold change /veh LOC100653217 /// NTM (11731650_a_at) / RFU MAPK11 (11762145_a_at) / Fold change /veh MAPK11 (11762145_a_at) / RFU FIZ1 (11724087_x_at) / Fold change /veh FIZ1 (11724087_x_at) / RFU OASL (11726364_x_at) / Fold change /veh OASL (11726364_x_at) / RFU SOX15 (11748057_x_at) / Fold change /veh SOX15 (11748057_x_at) / RFU CD79A (11719716_a_at) / Fold change /veh CD79A (11719716_a_at) / RFU HIST1H1D (11736915_at) / Fold change /veh HIST1H1D (11736915_at) / RFU CASKIN2 (11723855_a_at) / Fold change /veh CASKIN2 (11723855_a_at) / RFU LOC730098 (11760151_x_at) / Fold change /veh LOC730098 (11760151_x_at) / RFU OR4N2 (11742367_at) / Fold change /veh OR4N2 (11742367_at) / RFU PRRT2 (11749266_a_at) / Fold change /veh PRRT2 (11749266_a_at) / RFU SNX32 (11753110_a_at) / Fold change /veh SNX32 (11753110_a_at) / RFU CDHR5 (11726645_a_at) / Fold change /veh CDHR5 (11726645_a_at) / RFU RCAN1 (11760418_a_at) / Fold change /veh RCAN1 (11760418_a_at) / RFU FAM167A (11723789_a_at) / Fold change /veh FAM167A (11723789_a_at) / RFU FAM26E (11764081_at) / Fold change /veh FAM26E (11764081_at) / RFU ISYNA1 (11749810_s_at) / Fold change /veh ISYNA1 (11749810_s_at) / RFU ACY1 (11761880_at) / Fold change /veh ACY1 (11761880_at) / RFU 11764098_at / Fold change /veh 11764098_at / RFU SAMD14 (11745864_x_at) / Fold change /veh SAMD14 (11745864_x_at) / RFU NPB (11741838_a_at) / Fold change /veh NPB (11741838_a_at) / RFU TMPRSS6 (11731388_a_at) / Fold change /veh TMPRSS6 (11731388_a_at) / RFU KRTAP10-2 (11738614_at) / Fold change /veh KRTAP10-2 (11738614_at) / RFU ARHGAP8 /// PRR5-ARHGAP8 (11727945_x_at) / Fold change /veh ARHGAP8 /// PRR5-ARHGAP8 (11727945_x_at) / RFU KRTAP5-7 /// NADSYN1 (11734609_at) / Fold change /veh KRTAP5-7 /// NADSYN1 (11734609_at) / RFU RASL12 (11751679_a_at) / Fold change /veh RASL12 (11751679_a_at) / RFU CDKN2B (11736163_a_at) / Fold change /veh CDKN2B (11736163_a_at) / RFU PRF1 (11729649_at) / Fold change /veh PRF1 (11729649_at) / RFU, ZNF638 /// ZNF638-IT1 / Fold change vs veh, ZNF638 /// ZNF638-IT1 / RFU, PANK3 / Fold change vs veh, PANK3 / RFU, SH3YL1 / Fold change vs veh, SH3YL1 / RFU, ZEB2 / Fold change vs veh, ZEB2 / RFU, NRIP1 / Fold change vs veh, NRIP1 / RFU, PTTG1IP / Fold change vs veh, PTTG1IP / RFU, CAPN2 / Fold change vs veh, CAPN2 / RFU, MED14 / Fold change vs veh, MED14 / RFU, SNORA58 / Fold change vs veh, SNORA58 / RFU, C1orf63 / Fold change vs veh, C1orf63 / RFU, LRRFIP1 / Fold change vs veh, LRRFIP1 / RFU, NDUFAF7 / Fold change vs veh, NDUFAF7 / RFU, SLC12A2 / Fold change vs veh, SLC12A2 / RFU, IBTK / Fold change vs veh, IBTK / RFU, ESF1 / Fold change vs veh, ESF1 / Fold change vs veh, TMEM50B / RFU, TAOK1 / Fold change vs veh, TAOK1 / RFU, ACBD3 / Fold change vs veh, ACBD3 / RFU, TMA16 / Fold change vs veh, TMA16 / RFU, RWDD3 / Fold change vs veh, RWDD3 / RFU, BCAT1 / Fold change vs veh, BCAT1 / RFU, EDEM3 / Fold change vs veh, EDEM3 / RFU, TMEM33 / Fold change vs veh, TMEM33 / RFU, WDR75 / Fold change vs veh, WDR75 / RFU, AHCTF1 / Fold change vs veh, AHCTF1 / RFU, TFRC / Fold change vs veh, TFRC / RFU, ZDHHC17 / Fold change vs veh, ZDHHC17 / RFU, NOM1 / Fold change vs veh, NOM1 / RFU, ARL8B / Fold change vs veh, ARL8B / RFU, ZBTB11 / Fold change vs veh, ZBTB11 / RFU, TAMM41 / Fold change vs veh, TAMM41 / RFU, KIAA1704 /// LOC100996395 / Fold change vs veh, KIAA1704 /// LOC100996395 / RFU, ING1 / Fold change vs veh, ING1 / RFU, TRMT61B / Fold change vs veh, TRMT61B / RFU, FUBP3 / Fold change vs veh, FUBP3 / RFU, TP53 / Fold change vs veh, TP53 / RFU, TNKS2 / Fold change vs veh, TNKS2 / RFU, ZFP14 / Fold change vs veh, ZFP14 / RFU, ACTR2 / Fold change vs veh, ACTR2 / RFU, PPP3R1 / Fold change vs veh, PPP3R1 / RFU, PIK3R1 / Fold change vs veh, PIK3R1 / RFU, HNRNPA1 / Fold change vs veh, HNRNPA1 / RFU, RNF170 / Fold change vs veh, RNF170 / RFU, ZNF28 / Fold change vs veh, ZNF28 / RFU, RNGTT / Fold change vs veh, RNGTT / RFU, OGT / Fold change vs veh, OGT / RFU, BRD1 / Fold change vs veh, BRD1 / RFU, MARS / Fold change vs veh, MARS / RFU, ZNF655 / Fold change vs veh, ZNF655 / RFU, FAHD1 / Fold change vs veh, FAHD1 / RFU, BDP1 / Fold change vs veh, BDP1 / RFU, LRRCC1 / Fold change vs veh, LRRCC1 / RFU, ARID1A / Fold change vs veh, ARID1A / RFU, ZNF146 / Fold change vs veh, ZNF146 / RFU, ZNF330 / Fold change vs veh, ZNF330 / RFU, GPN3 / Fold change vs veh, GPN3 / RFU, C9orf123 / Fold change vs veh, C9orf123 / RFU, N4BP2L2 / Fold change vs veh, N4BP2L2 / RFU, ARFIP1 / Fold change vs veh, ARFIP1 / RFU, FAM179B / Fold change vs veh, FAM179B / RFU, BCL10 / Fold change vs veh, BCL10 / RFU, UHRF1BP1L / Fold change vs veh, UHRF1BP1L / RFU, BET1 / Fold change vs veh, BET1 / RFU, CNOT2 / Fold change vs veh, CNOT2 / RFU, ZNF268 / Fold change vs veh, ZNF268 / Fold change vs veh, ZNF507 / RFU, DGCR2 / Fold change vs veh, DGCR2 / RFU, WDSUB1 / Fold change vs veh, WDSUB1 / Fold change vs veh, HSP90B1 /// MIR3652 / RFU, ADSS / Fold change vs veh, ADSS / RFU, GK / Fold change vs veh, GK / RFU, ZNF148 / Fold change vs veh, ZNF148 / RFU, TAF9 / Fold change vs veh, TAF9 / RFU, SLC1A5 / Fold change vs veh, SLC1A5 / RFU, SLMO2 / Fold change vs veh, SLMO2 / RFU, ABCC4 / Fold change vs veh, ABCC4 / RFU, LOC101060439 /// RAP1B / Fold change vs veh, LOC101060439 /// RAP1B / RFU, RFX7 / Fold change vs veh, RFX7 / RFU, GTPBP10 / Fold change vs veh, GTPBP10 / RFU, CNEP1R1 / Fold change vs veh, CNEP1R1 / RFU, BIVM-ERCC5 /// ERCC5 / Fold change vs veh, BIVM-ERCC5 /// ERCC5 / RFU, ILF3 / Fold change vs veh, ILF3 / RFU 11762660_at / Fold change /veh 11762660_at / RFU VCAN (11757783_s_at) / Fold change /veh VCAN (11757783_s_at) / RFU DDX43 (11728927_at) / Fold change /veh DDX43 (11728927_at) / RFU KRT8 (11758188_x_at) / Fold change /veh KRT8 (11758188_x_at) / RFU NKD1 (11759106_at) / Fold change /veh NKD1 (11759106_at) / RFU SRD5A1 (11742802_a_at) / Fold change /veh SRD5A1 (11742802_a_at) / RFU TPSAB1 /// TPSB2 (11721975_s_at) / Fold change /veh TPSAB1 /// TPSB2 (11721975_s_at) / RFU GSTM3 (11746129_a_at) / Fold change /veh GSTM3 (11746129_a_at) / RFU IL23R (11737362_x_at) / Fold change /veh IL23R (11737362_x_at) / RFU TMEM51 (11727254_a_at) / Fold change /veh TMEM51 (11727254_a_at) / RFU PIWIL2 (11732686_x_at) / Fold change /veh PIWIL2 (11732686_x_at) / RFU ORM1 (11744905_x_at) / Fold change /veh ORM1 (11744905_x_at) / RFU CCDC152 (11743942_at) / Fold change /veh CCDC152 (11743942_at) / RFU ECM1 (11717891_a_at) / Fold change /veh ECM1 (11717891_a_at) / RFU IL23R (11748794_a_at) / Fold change /veh IL23R (11748794_a_at) / RFU TNFAIP8L3 (11732012_x_at) / Fold change /veh TNFAIP8L3 (11732012_x_at) / RFU MBOAT4 (11741988_at) / Fold change /veh MBOAT4 (11741988_at) / RFU 11764193_at / Fold change /veh 11764193_at / RFU TMEM53 (11763286_at) / Fold change /veh TMEM53 (11763286_at) / RFU MAGEB2 (11727129_at) / Fold change /veh MAGEB2 (11727129_at) / RFU TMEM200A (11744735_a_at) / Fold change /veh TMEM200A (11744735_a_at) / RFU CCDC152 (11751479_a_at) / Fold change /veh CCDC152 (11751479_a_at) / RFU FAM211A (11726209_a_at) / Fold change /veh FAM211A (11726209_a_at) / RFU RGS16 (11746705_a_at) / Fold change /veh RGS16 (11746705_a_at) / RFU VCAN (11755009_s_at) / Fold change /veh VCAN (11755009_s_at) / RFU RHOB (11743442_s_at) / Fold change /veh RHOB (11743442_s_at) / RFU RGS16 (11720943_a_at) / Fold change /veh RGS16 (11720943_a_at) / RFU RGS16 (11720944_at) / Fold change /veh RGS16 (11720944_at) / RFU, VPS4B / Fold change vs veh, VPS4B / RFU, CREB1 / Fold change vs veh, CREB1 / RFU, DNAJC13 / Fold change vs veh, DNAJC13 / RFU, GNAQ / Fold change vs veh, GNAQ / RFU, CDK5R1 / Fold change vs veh, CDK5R1 / RFU, ZRANB3 / Fold change vs veh, ZRANB3 / RFU, CUL4A / Fold change vs veh, CUL4A / RFU, CCNY / Fold change vs veh, CCNY / RFU, UFL1 / Fold change vs veh, UFL1 / RFU, COG3 / Fold change vs veh, COG3 / RFU, DIAPH2 / Fold change vs veh, DIAPH2 / RFU, SKA2 / Fold change vs veh, SKA2 / RFU, AFF3 / Fold change vs veh, AFF3 / RFU, LMF1 / Fold change vs veh, LMF1 / RFU, IPO11 / Fold change vs veh, IPO11 / RFU, DFFB / Fold change vs veh, DFFB / RFU, FOXP1 / Fold change vs veh, FOXP1 / RFU, CARD8 / Fold change vs veh, CARD8 / RFU, STRN3 / Fold change vs veh, STRN3 / RFU, ADK / Fold change vs veh, ADK / RFU, RASSF2 / Fold change vs veh, RASSF2 / RFU, WIPF1 / Fold change vs veh, WIPF1 / RFU, LARP1B / Fold change vs veh, LARP1B / RFU, RASA1 / Fold change vs veh, RASA1 / RFU, RB1 / Fold change vs veh, RB1 / RFU, PPFIA1 / Fold change vs veh, PPFIA1 / RFU, MAT2A / Fold change vs veh, MAT2A / RFU, CCT5 / Fold change vs veh, CCT5 / RFU, WDR92 / Fold change vs veh, WDR92 / RFU, CUX1 / Fold change vs veh, CUX1 / RFU, TTC7A / Fold change vs veh, TTC7A / RFU, TMEM135 / Fold change vs veh, TMEM135 / RFU, DEPTOR / Fold change vs veh, DEPTOR / RFU, CPM / Fold change vs veh, CPM / RFU, DNAJB6 / Fold change vs veh, DNAJB6 / RFU, CACNA2D3 / Fold change vs veh, CACNA2D3 / RFU, DTX4 / Fold change vs veh, DTX4 / RFU, TFCP2 / Fold change vs veh, TFCP2 / RFU, GMCL1 /// GMCL1P1 / Fold change vs veh, GMCL1 /// GMCL1P1 / RFU, AEBP2 / Fold change vs veh, AEBP2 / RFU, SNHG1 /// SNORD22 /// SNORD25 /// SNORD26 /// SNORD27 /// SNORD28 /// SNORD29 /// SNORD31 / Fold change vs veh, SNHG1 /// SNORD22 /// SNORD25 /// SNORD26 /// SNORD27 /// SNORD28 /// SNORD29 /// SNORD31 / Fold change (Aza/veh), C12orf56 (ProbeSet 11735607_a_at) / Fold change (ACY-1035/veh), C12orf56 (ProbeSet 11735607_a_at) / Fold change (Aza/veh), FGFR1OP (ProbeSet 11751329_s_at) / Fold change (ACY-1035/veh), FGFR1OP (ProbeSet 11751329_s_at) / Fold change (Aza/veh), VPS36 (ProbeSet 11739960_a_at) / Fold change (ACY-1035/veh), VPS36 (ProbeSet 11739960_a_at) / RFU SYPL1 (11715823_x_at) / Fold change /veh SYPL1 (11715823_x_at) / RFU IGFBP7 (11715501_s_at) / Fold change /veh IGFBP7 (11715501_s_at) / RFU REEP3 (11722064_at) / Fold change /veh REEP3 (11722064_at) / RFU IGLL1 (11728026_x_at) / Fold change /veh IGLL1 (11728026_x_at): dose or concentration left out as unconfirmed
# Conditions: ProbeSet 11753616_s_at; LIST B
smiles,measurement,value
Nc1ccc(-c2cccs2)cc1NC(=O)c1ccc2c(c1)cc(C1CC1)n2CCN1CCOCC1 [ACY-1035],"RFU, ARL8B",236.78 RFU
